Assay [1] deals with P2Y receptor on THP-1 cells. Kind of assay: Dual label cell function assay, calcium response of THP-1 cells to UTP (Fluo-3 / Syto-17, on-chip). The format is cell-based. As to the method: (§1) Cell Culture—Cells (CHO or THP-1) were obtained from the ATCC. THP-1 cells were cultured in RPMI 1640 media containing 10% fetal bovine serum (FBS), sodium pyruvate (1 mM), L-glutamine (2 mM), Penicillin-G/Streptomycin (100 u/ml, 100 μ/ml), beta-mercaptoethanol (50 μM), HEPES buffer, pH 7.4 (10 mM). CHO cells were cultured in Ham's F12 media containing 10% FBS, L-glutamine (2 mM), and Penicillin-G/Streptomycin (100 u/ml/100 μg/ml). The cells were maintained by splitting every 3-4 days.
(§2) Dye Loading of Cells—The cells were loaded with Fluo-3-AM dye (Molecular Probes) using a 4 μM solution of the dye in Hank's Balanced Salt Solution (HBSS) containing calcium and magnesium but lacking phenol red. Added to the HBSS were 1% FBS, 2.5 mM probenecid, 30 mM HEPES, pH 7.0, and 0.05% pluronic acid. The cells were incubated in the dye containing solution at approximately, 5-9×10^6 cells/5 ml for 50 minutes in a CO2 incubator at 37° C. […]
(§3) The fluorescence of the cells was measured using two PMT's on a Nikon inverted microscope and fluorescein/texas red filter sets (Fluo-3: Ex. max=506, Em. max=526 & Syto-17: Ex. max=621, Em. max=634 nm) for two color analysis. Using the combination of Fluo-3 and Syto-17 dyes, there was no interference by fluorescence quenching of one dye's emission by the other dye. […] Syto-17 was therefore an indicator of cell density in the reading area. […]

The next assay concerns CHO cells. The assay can be described thus: Dual label cell function assay, intracellular calcium in CHO cells (Fluo-3 / Syto-17, on-chip). The format is cell-based. Conditions: ionomycin 0, 1 μM, 3 μM, 10 μM and 30 μM, FIGS. 11A-11F. As to the method: as §1, §2, §3
A general note: A change in cytosolic calcium serves as a functional read-out for many receptors and channels.

Bounds are passed on as bounds.

These results are taken from patent US6529835B1, “High throughput methods, systems and apparatus for performing cell based screening assays” (Caliper Technologies Corp., priority 1998, dated 2003).

Regarding `O=c1ccn([C@@H]2O[C@H](COP(=O)(O)OP(=O)(O)OP(=O)(O)O)[C@@H](O)[C@H]2O)c(=O)[nH]1` [UTP], the “time to peak of calcium response after sample introduction” value in assay [1] (10 μM UTP, FIG. 15) is not above 5 s. Besides, in assay [1] (30 μM UTP versus no UTP, FIG. 13), the “ratio of the Fluo-3 and Syto-17 fluorescence (the slope determined by linear regression)” value is reported as “changes with treatment with UTP”. As to `C[C@H](CCC(=O)O)C[C@H](C)C[C@H](C)C(=O)/C=C(\O)[C@H](C)C[C@H](C)C/C=C/[C@@H](C)[C@@H](O)[C@@H](C)[C@@H](O)C[C@@H]1CC[C@@](C)([C@H]2CC[C@@](C)([C@@H](C)O)O2)O1` [ionomycin], the “slope of the best fit line for the scatter plots (ratio of calcium modulated fluorescence to cell number; measure of intracellular calcium concentration)” value in the assay with CHO cells is reported as “increases with increasing ionomycin concentration”.
